We go through one compound from publication PMC11784013, “Potassium molybdate blocks APN-dependent coronavirus entry by degrading receptor via PIK3C3-mediated autophagy” (Journal of Virology, 2024).

One assay has as its system ATG14. Description: ATG14 expression in ST cells (western blot). The class given is cell-based, porcine. Conditions: Fig. S8A, PM 10 mM, PRCV 0.1 MOI, 16 h. The protocol: Fig 7 PM degrades APN expression via activating PIK3C3-mediated autophagy. (A) Graphical representation for autophagy and the targets of different autophagy inhibitors. (B) ST cells were treated with PM (10 mM) in the presence and absence of 3-MA (20 mM), SBI0206965 (20 µM), and 3BDO (30 µM) for 16 h, and the APN expression was detected by western blot. (C) ST cells were treated with PM (10 mM) in the presence and absence of 3-MA (20 mM) for 16 h, and the APN, PIK3C3, ATG14, BECN1, P62, and LC3 were measured by western blot. (D) ST cells were transfected with PIK3C3 siRNA-1, PIK3C3 siRNA-2, PIK3C3 siRNA-3, PIK3C3 siRNA-4, and NC siRNA for 24 h, the PIK3C3 expression was detected by western blot. […] The APN, PIK3C3, ATG14, BECN1, P62, and LC3 were detected by western blot. […] (G) PIK3C3 was detected by western blot in WT ST cells and PIK3C3 KO ST cells. (H) WT ST cells and PIK3C3 KO ST cells were treated with PM (10 mM) for 16 h and then the APN, PIK3C3, ATG14, BECN1, P62, and LC3 were detected by western blot. […] The APN, PIK3C3, P62, and LC3 were detected by western blot. All western blot results were calculated by Image J. All experiments were performed in triplicate.
Fig. S8. […] Then the APN, PIK3C3, ATG14, BECN1, P62, PRCV N and LC3 were detected by western blot (A), and viral titers and PRCV N mRNA level were determined by TCID50 (B) and RT-qPCR (C) . […]

Another assay concerns APN. Description: APN expression in BHK-21 cells (western blot). The format is cell-based, mouse. Conditions: for APN level, western blot quantified by Image J, relative to no PM (=1): PM 10 mM. The protocol:
Fig. S6. PM degrades human and mouse-derived APN expression. (A and B) HEK-293T cells (A) and […] (B) were treated with PM (10 mM) for 8 h or 16 h respectively, APN expression was measured by western blot. All western blot results were calculated by Image J. All experiments were […]
PM(10mM) - + - + PM(10mM) - + - + […]

For `[K+].[K+].[O]=[Mo](=[O])([O-])[O-]` [PM, potassium molybdate], the results for the “ATG14 level, western blot, relative to WT without PM (=1)” value in the assay on ATG14 (PIK3C3 KO ST cells) and in the assay on ATG14 (WT ST cells) were 1.03 and 1.07, respectively. For the same compound, the “APN level, western blot quantified by Image J, relative to no PM (=1)” value with APN (8 h) stood at 0.38; with APN (16 h), 0.20. In addition, in the assay with APN (PM for 8 and 16 h), the “mouse-derived APN expression” value was “also decreased human and mouse-derived APN expression”.
